# Test results: patent US20230183218A1, “CONDENSED SUBSTITUTED HYDROPYRROLES AS ANTAGONISTS OF THE MUSCARINIC ACETYLCHOLINE RECEPTOR M4” (Vanderbilt University, priority 2020, published 2023)
# Where two headings read alike, the source gives them in different places.
# Legend:
# Human M4 = target: T1, Human M4 (Homo sapiens, UniProt P08173); assay: mAChR M4 cell-based functional assay (calcium flux, antagonist mode vs EC80 acetylcholine), human M4/Gqi5/CHO-K1 cells; conditions: for remaining activity at 30 µM: CHO-K1, % ACh maximum at 30 μM, human M4, read-out: Human M4 Emin (%); for IC50: decrease of response elicited by EC80 acetylcholine, human M4/Gqi5 CHO-K1 cells
# T1 construct: expressed in transfected cells; host or cells: CHO-K1 (ATCC), stably co-expressing chimeric G protein Gqi5
# T1 sequence (P08173 1-479): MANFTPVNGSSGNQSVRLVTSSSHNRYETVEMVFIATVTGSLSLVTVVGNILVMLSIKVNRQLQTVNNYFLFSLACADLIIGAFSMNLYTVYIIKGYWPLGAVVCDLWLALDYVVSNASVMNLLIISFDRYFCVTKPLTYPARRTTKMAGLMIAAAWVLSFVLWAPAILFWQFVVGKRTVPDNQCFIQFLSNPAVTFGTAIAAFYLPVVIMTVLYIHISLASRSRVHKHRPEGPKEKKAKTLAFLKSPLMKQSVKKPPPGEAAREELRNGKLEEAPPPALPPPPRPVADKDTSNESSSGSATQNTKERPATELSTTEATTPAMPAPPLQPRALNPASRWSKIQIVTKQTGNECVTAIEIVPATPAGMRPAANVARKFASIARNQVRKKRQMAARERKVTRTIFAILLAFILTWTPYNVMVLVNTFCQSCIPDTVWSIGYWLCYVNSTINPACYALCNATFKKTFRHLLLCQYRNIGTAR
# Summary of the method: (§1)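 CHO-K1 cells stably expressing human or rat M4 with Gqi5, Fluo-4 loaded; calcium measured by fluorescence ratio on FDSS. Compound added, then EC20 acetylcholine at 143 s and EC80 at 268 s; IC50 from decrease of EC80 response, four-parameter logistic fit.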
# Rat M4 = target: T2, Rat M4 (Rattus norvegicus, UniProt P08485); assay: mAChR M4 cell-based functional assay (calcium flux, antagonist mode vs EC80 acetylcholine), rat M4/Gqi5/CHO-K1 cells; conditions: for remaining activity at 30 µM: CHO-K1, % ACh maximum at 30 μM, rat M4, read-out: Rat M4 Emin (%); for IC50: decrease of response elicited by EC80 acetylcholine, rat M4/Gqi5 CHO-K1 cells
# T2 construct: expressed in transfected cells; host or cells: CHO-K1 (ATCC), stably co-expressing chimeric G protein Gqi5
# T2 sequence (P08485 1-478): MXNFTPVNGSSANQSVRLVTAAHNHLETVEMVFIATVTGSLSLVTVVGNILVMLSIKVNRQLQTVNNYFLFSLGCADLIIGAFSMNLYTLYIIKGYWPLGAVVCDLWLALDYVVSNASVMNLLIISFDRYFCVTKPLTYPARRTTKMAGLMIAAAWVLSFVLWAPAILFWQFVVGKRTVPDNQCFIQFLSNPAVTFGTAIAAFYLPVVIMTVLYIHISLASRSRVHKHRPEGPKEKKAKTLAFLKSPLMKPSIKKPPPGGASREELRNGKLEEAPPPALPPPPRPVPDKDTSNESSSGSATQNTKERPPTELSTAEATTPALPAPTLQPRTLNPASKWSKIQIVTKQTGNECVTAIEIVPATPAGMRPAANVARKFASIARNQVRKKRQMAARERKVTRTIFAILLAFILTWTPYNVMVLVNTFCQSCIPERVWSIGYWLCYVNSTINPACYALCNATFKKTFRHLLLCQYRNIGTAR
# Summary of the method: as §1
# locomotor activity = conditions: M4 knockout mice, but not the other four mAChR subtypes (M1-3,5); cited from earlier work
# [1] = system: haloperidol-induced catalepsy; conditions: cited from earlier work
SMILES,remaining activity at 30 µM (Human M4) [%],IC50 (Human M4) [nM],remaining activity at 30 µM (Rat M4) [%],IC50 (Rat M4) [nM],locomotor-activating effects (locomotor activity),reversal of haloperidol-induced catalepsy ([1]; M4KO mice),reversal of haloperidol-induced catalepsy ([1]; WT mice)
"Fc1ccc(Cl)c(-c2ccc(N[C@H]3C[C@@H]4CN(C5CCCCCC5)C[C@@H]4C3)nn2)c1 [compound 75, (3aR,5s,6aS)-N-(6-(2-chloro-5-fluorophenyl)pyridazin-3-yl)-2-cycloheptyloctahydrocyclopenta[c]pyrrol-5-amine]",2,3.2,3,41.8,–,–,–
"Fc1ccc(Cl)c(-c2ccc(N[C@H]3C[C@@H]4CN(C5Cc6ccccc6C5)C[C@@H]4C3)nn2)c1 [compound 76, (3aR,5s,6aS)-N-(6-(2-chloro-5-fluorophenyl)pyridazin-3-yl)-2-(2,3-dihydro-1H-inden-2-yl)octahydrocyclopenta[c]pyrrol-5-amine]",3,189,4,350,–,–,–
"Fc1ccc(Cl)c(-c2ccc(N[C@H]3C[C@@H]4CN(C5CCC6(CCCCC6)CC5)C[C@@H]4C3)nn2)c1 [compound 77, (3aR,5s,6aS)-N-(6-(2-chloro-5-fluorophenyl)pyridazin-3-yl)-2-(spiro[5.5]undecan-3-yl)octahydrocyclopenta[c]pyrrol-5-amine]",3,25.7,7,387,–,–,–
"Fc1ccc(Cl)c(-c2ccc(N[C@H]3C[C@@H]4CN(C5CCC6(CCOCC6)CC5)C[C@@H]4C3)nn2)c1 [compound 78, (3aR,5s,6aS)-N-(6-(2-chloro-5-fluorophenyl)pyridazin-3-yl)-2-(3-oxaspiro[5.5]undecan-9-yl)octahydrocyclopenta[c]pyrrol-5-amine]",3,2.3,3,102,–,–,–
CN1[C@@H]2C[C@@H](OC(=O)[C@H](CO)c3ccccc3)C[C@H]1[C@@H]1O[C@@H]12 [scopolamine],–,–,–,–,dramatically reduced,ineffective in reducing catalepsy,completely reversed

# Continued, in another order:
remaining activity at 30 µM (Human M4) [%],IC50 (Human M4) [nM],remaining activity at 30 µM (Rat M4) [%],IC50 (Rat M4) [nM],SMILES,locomotor-activating effects (locomotor activity),reversal of haloperidol-induced catalepsy ([1]; M4KO mice),reversal of haloperidol-induced catalepsy ([1]; WT mice)
3,12.4,5,369,"C=CCN1C(=O)C(C)(C)c2cc(N[C@H]3C[C@@H]4CN(CCC(C)(C)C)C[C@@H]4C3)nnc21 [compound 71, 7-allyl-3-(((3aR,5s,6aS)-2-(3,3-dimethylbutyl)octahydrocyclopenta[c]pyrrol-5-yl)amino)-5,5-dimethyl-5,7-dihydro-6H-pyrrolo[2,3-c]pyridazin-6-one]",–,–,–
4,10.5,4,217,"CCCN1C(=O)C(C)(C)c2cc(N[C@H]3C[C@@H]4CN(CCC(C)(C)C)C[C@@H]4C3)nnc21 [compound 72, 3-(((3aR,5s,6aS)-2-(3,3-dimethylbutyl)octahydrocyclopenta[c]pyrrol-5-yl)amino)-5,5-dimethyl-7-propyl-5,7-dihydro-6H-pyrrolo[2,3-c]pyridazin-6-one]",–,–,–
3,13.5,8,1360,"CC(C)(O)CN1C[C@H]2C[C@H](Nc3ccc(-c4cc(F)ccc4Cl)nn3)C[C@H]2C1 [compound 73, 1-((3aR,5s,6aS)-5-((6-(2-Chloro-5-fluorophenyl)pyridazin-3-yl)amino)hexahydrocyclopenta[c]pyrrol-2(1H)-yl)-2-methylpropan-2-ol]",–,–,–
2,27.3,4,933,"Fc1ccc(Cl)c(-c2ccc(N[C@H]3C[C@@H]4CN(C5CCCC5)C[C@@H]4C3)nn2)c1 [compound 74, (3aR,5s,6aS)-N-(6-(2-chloro-5-fluorophenyl)pyridazin-3-yl)-2-cyclopentyloctahydrocyclopenta[c]pyrrol-5-amine]",–,–,–
8,1750,42,> 10000,"O=S1(=O)CCC(N2C[C@H]3C[C@H](Nc4ccc(-c5cc(F)ccc5Cl)nn4)C[C@H]3C2)CC1 [compound 79, 4-((3aR,5s,6aS)-5-((6-(2-chloro-5-fluorophenyl)pyridazin-3-yl)amino)hexahydrocyclopenta[c]pyrrol-2(1H)-yl)tetrahydro-2H-thiopyran 1,1-dioxide]",–,–,–
